From ChEMBL document CHEMBL1129744, “Novel imidazothioxanthones: Synthesis, DNA binding and cytotoxicity” (Bioorg Med Chem Lett, 1996)

Assays:
A2780 [1] = experiment: Compound was evaluated for cytotoxicity against A2780 cell lines.; format: functional, cell-based; details: Homo sapiens
A2780 [2] = experiment: Compound was evaluated for cytotoxicity against A2780 cis cell lines.; format: functional, cell-based; details: Homo sapiens
[3] = Compound was evaluated for induced thermal stabilization for compound: DNA ratio of 1:10 at 0.1 to 0.2 degrees Centigrade.; design: unit: °C
[4] = Compound was evaluated for induced thermal stabilization for compound: DNA ratio of 1:5 at 0.1 to 0.2 degrees Centigrade.; design: unit: °C
SK-OV-3 = experiment: Compound was evaluated for cytotoxicity against SCOV-3 cell lines.; format: functional, cell-based; details: Homo sapiens
MAC15A = experiment: Compound was evaluated for cytotoxicity against Mac15A cell lines.; format: functional, cell-based; details: Mus musculus
HOP-92 = experiment: Compound was evaluated for cytotoxicity against HOP-92 cell lines.; format: functional, cell-based; details: Homo sapiens
MCF7 = experiment: Compound was evaluated for cytotoxicity against MCF-7 cell lines.; format: functional, cell-based; details: Homo sapiens
MOLT-4 = experiment: Compound was evaluated for cytotoxicity against MOLT-4 cell lines.; format: functional, cell-based; details: Homo sapiens
SW-620 = experiment: Compound was evaluated for cytotoxicity against SW-620 cell lines.; format: functional, cell-based; details: Homo sapiens
WEHI = experiment: Compound was evaluated for cytotoxicity against WEHI cell lines.; format: functional, cell-based; details: Mus musculus

| SMILES | IC50 (A2780 [1]) [nM] | IC50 (A2780 [2]) [nM] | Change in Tm [3] | Change in Tm [4] | IC50 (SK-OV-3) [nM] | IC50 (MAC15A) [nM] | IC50 (HOP-92) [nM] | IC50 (MCF7) [nM] | IC50 (MOLT-4) [nM] | IC50 (SW-620) [nM] | IC50 (WEHI) [nM] |
| --- | --- | --- | --- | --- | --- | --- | --- | --- | --- | --- | --- |
| O=C(NCCN1CCCCC1)c1cn2c(ccc3sc4ccccc4c(=O)c32)n1 | 560 | 650 | 6 | 10.5 | 7700 | 180 |  |  |  |  |  |
| CN(C)CCCNC(=O)c1cn2c(ccc3sc4ccccc4c(=O)c32)n1 | 540 | 760 | 5.7 | 10.4 | 2150 | 500 | 360 | 11200 | 420 | 1440 | 300 |
| O=C(NCCN1CCCC1)c1cn2c(ccc3sc4ccccc4c(=O)c32)n1 | 4500 | 6000 | 3.4 | 6.5 | 29000 |  | 15900 | 610 | 470 | 1520 |  |
| O=C(c1cn2c(ccc3sc4ccccc4c(=O)c32)n1)N1CCN(CCO)CC1 | 740 | 1800 | 1.9 | 3.5 | 13500 | 420 |  |  |  |  |  |
| O=C(NCCN1CCOCC1)c1cn2c(ccc3sc4ccccc4c(=O)c32)n1 | 5800 | 7600 | 1.6 | 2.9 | 23000 |  | 12800 | 7080 | 3300 | 4850 |  |
| CCN(CC)CCCNC(=O)c1cn2c(ccc3sc4ccccc4c(=O)c32)n1 | 430 | 480 | 7 | 12.4 | 1650 |  |  |  |  |  |  |
| CCOC(=O)c1cn2c(ccc3sc4ccccc4c(=O)c32)n1 | > 100000 | > 100000 | 0.5 | 1.2 | > 100000 |  | 87500 | 84400 | > 100000 | > 100000 | > 100000 |
| O=C1c2c(O)ccc(O)c2C(=O)c2c(NCCNCCO)ccc(NCCNCCO)c21 [MITOXANTRONE] | 5500 |  | 15 | > 25 |  |  |  |  |  |  |  |
| Nc1ccc2cc3ccc(N)cc3nc2c1 [PROFLAVINE] |  |  | 6.3 | 11.5 |  |  |  |  |  |  |  |
